Assays:
[1] = format: in vitro ADME, Dutch Belted rabbits; conditions: Dutch Belted, rabbit, 1 μM, pH 6
Description: Dutch Belted rabbits were euthanized with an overdose of sodium pentobarbital. The corneas were collected and homogenized in ice-cold potassium chloride solution (pH=7.4). The homogenate was centrifuged at 755×g for 30 min at 4° C. and aliquots of the supernatant were stored at or below −70° C. until metabolism experiments were conducted. Prior to storing the homogenates an aliquot was removed for determination of protein concentrations by calculating the 260 nm absorbance using a spectrophotometer. Human recombinant carboxylesterases were purchased from a commercial vendor (BD Gentest™, Bedford, Mass.)
All metabolic stability experiments were performed in triplicate in 96-well plate format. The final incubation mixture contained 1 μM test compound, 0.3 mg/mL corneal protein homogenate or 0.1 mg/mL human recombinant carboxylesterase mixture in a final volume of 0.5 mL 0.1M potassium phosphate buffer (pH=6.0). The final percentage of solvent in the incubation was less than 1.0% to prevent inhibition of enzymatic activity. Following a pre-incubation at 37° C., test article was added to initiate the reaction. At designated time points (typically less than 60 minutes to capture the linear range of metabolite formation), 0.05 mL aliquots were removed from the incubation mixtures using a clean pipet tip and immediately placed in organic solvent to stop any esterase activity. The hydrolysis to the metabolites was confirmed to be due to esterase activity and not chemical lability.
The samples were analyzed by liquid chromatography with mass spectrometry (LC-MS/MS) detection to determine the metabolite concentrations resulting from the metabolism of the hybrid compounds. Internal standards were used to compensate for variability from sample processing, chromatographic elution, mass spectrometer response and ion suppression by matrix components.

[2] = Ocular pharmacokinetics following a single topical ophthalmic administration in rabbits; format: in vivo, New Zealand White Rabbits; conditions: single topical ocular dose of 0.4% (w/v) solution; cornea, aqueous humor, conjunctiva, eyelid margin; FIG. 2
Description: Rabbits were dosed once by ocular instillation to both eyes with each compound formulated in a 0.4% (w/v) solution. At 0.25, 0.5, 1, 2, 6, and 10 hours post dose cornea, aqueous humor, conjunctiva and eyelid margin were collected and stored at approximately −70° C. until bioanalysis. Ocular tissue samples were analyzed by liquid chromatography with mass spectrometry (LC-MS/MS) detection to determine the parent (i.e., ester linked hybrids) and metabolite (i.e. steroid and antibiotic) concentrations resulting from the metabolism of ester linked hybrids. Internal standards were used to compensate for variability from sample processing, chromatographic elution, mass spectrometer response and ion suppression by matrix components.

| SMILES | Rate of formation Metabolite 1 (Betamethasone) [1] | Rate of formation Metabolite 2 (Gatifloxacin) [1] | Rate of formation Metabolite 1 (Dexamethasone) [1] | Rate of formation Metabolite 1 (Prednisolone) [1] | uptake into ocular tissues and cleavage to Prednisolone and Gatifloxacin (AUC0-10hr) [2] |
| --- | --- | --- | --- | --- | --- |
| COc1c(N2CCNC(C)C2)c(F)cc2c(=O)c(C(=O)OCC(=O)[C@]3(O)[C@H](C)C[C@@H]4[C@H]5CCC6=CC(=O)C=C[C@@]6(C)[C@]5(F)[C@H](O)C[C@]43C)cn(C3CC3)c12 (relative stereo) [Compound 1, 2-[(8R,9S,10R,11R,13R,14R,16R,17S)-9-fluoro-11,17-dihydroxy-10,13,16-trimethyl-3-oxo-6,7,8,9,10,11,12,13,14,15,16,17-dodecahydro-3H-cyclopenta[a]phenanthren-17-yl]-2-oxoethyl rel-1-cyclopropyl-6-fluoro-8-methoxy-7-(3-methylpiperazin-1-yl)-4-oxo-1,4-dihydroquinoline-3-carboxylate] | 7.27 ± 0.58 nM/min/mg | 4.45 ± 0.28 nM/min/mg |  |  |  |
| COc1c(N2CCNC(C)C2)c(F)cc2c(=O)c(C(=O)OCC(=O)[C@]3(O)[C@@H](C)C[C@@H]4[C@H]5CCC6=CC(=O)C=C[C@@]6(C)[C@]5(F)[C@H](O)C[C@]43C)cn(C3CC3)c12 (relative stereo) [Compound 7, 2-[(8R,9S,10R,11R,13R,14R,16S,17S)-9-fluoro-11,17-dihydroxy-10,13,16-trimethyl-3-oxo-6,7,8,9,10,11,12,13,14,15,16,17-dodecahydro-3H-cyclopenta[a]phenanthren-17-yl]-2-oxoethyl rel-1-cyclopropyl-6-fluoro-8-methoxy-7-(3-methylpiperazin-1-yl)-4-oxo-1,4-dihydroquinoline-3-carboxylate] |  | 4.93 ± 0.48 nM/min/mg | 7.31 ± 0.62 nM/min/mg |  |  |
| COc1c(N2CCNC(C)C2)c(F)cc2c(=O)c(C(=O)OCC(=O)[C@]3(O)CC[C@@H]4[C@H]5CCC6=CC(=O)C=C[C@@]6(C)[C@@H]5[C@H](O)C[C@]43C)cn(C3CC3)c12 (relative stereo) [Compound 12, 2-[(8R,9R,10S,11R,13R,14R,17S)-11,17-dihydroxy-10,13-dimethyl-3-oxo-6,7,8,9,10,11,12,13,14,15,16,17-dodecahydro-3H-cyclopenta[a]phenanthren-17-yl]-2-oxoethyl rel-1-cyclopropyl-6-fluoro-8-methoxy-7-(3-methylpiperazin-1-yl)-4-oxo-1,4-dihydroquinoline-3-carboxylate] |  | 3.46 ± 0.50 nM/min/mg |  | 6.02 ± 0.63 nM/min/mg | taken up into rabbit ocular tissues and enzymatically hydrolyzed to the individual antibiotic and steroid |
